Earlier results in US7705151B2, “1,6 Naphthridines useful as inhibitors of SYK kinase” (Boehringer Ingelheim Pharmaceuticals, Inc., priority 2001, dated 2010).

## Cc1ccc2c(=O)c3ccccc3n(CCCN)c2c1C.O=C(O)C(=O)O [ER-27319, 3,4-dimethyl-10-(3-aminopropyl)-9-acridone oxalate]
Rodent mast cells
  inhibition of anti-IgE mediated degranulation: inhibit anti-IgE mediated degranulation
Human mast cells
  inhibition of anti-IgE mediated degranulation: inhibit anti-IgE mediated degranulation
